Measurements: ChEMBL document CHEMBL3507680, “University of Dundee, Gates Library screen for HepG2 cell viability”

Experiment: Human HepG2 cell viability assay in 384 well format
Format: toxicity, cell-based
Design: dose 125 nL, time 70.5 hour; concentration not given beside the values
Settings: HepG2 cells, read-out: Inhibition

Structure (SMILES)	cytotoxicity at 70.5 h
CNc1cc(C)nc(N2C[C@@H](C(=O)O)[C@H](C3CC3)C2)n1	-1.21%
CN(C)C1CCN(C(=O)NCc2ccccc2Cn2cncn2)CC1	-11.6%
c1cnc(N2C[C@H]3CCN(c4cccnc4)C[C@H]3C2)nc1	-6.6%
Cc1nc(CN2CCCC(c3cnccn3)C2)cs1 (stereo not given)	-2.76%
CC(=O)N1CCO[C@@H]2CN(S(=O)(=O)C3CC3)C[C@@H]2C1	-0.958%
Cc1nsc(NC2CC(=O)N(C(C)(C)C)C2)n1 (stereo not given)	11.5%
COCC[C@]1(O)CCN(C(=O)CCn2c(C)cccc2=O)C[C@H]1C	12.1%
C[C@@H]1CN(c2cc(N3CCC(O)CC3)ncn2)C[C@@]1(O)C1CCC1	35.1%
Cc1cnc2n1CCN(C)C21CCN(CC2CC2)CC1	-0.923%
Cc1nn(C)c2nc(N3CCC(C(O)c4nccn4C)CC3)sc12 (stereo not given)	-11.6%
Cc1ccc(SCC(=O)NS(=O)(=O)c2ccc3c(c2)OCCO3)cc1	-1.91%
CC(C)c1noc(CC[C@@H]2CCCN3CCCC[C@H]23)n1	-0.439%
N#Cc1ccc(CN2CCC(CCc3ccc(O)cc3)CC2)cc1	11%
CCOC1CCN(C(=O)NCc2ccc(CN3CCOCC3)cc2)CC1	-9.89%
CCN1CCC2(CCN(Cc3nccs3)CC2)C1=O	0.565%
CS(=O)(=O)NCC1CCCN(c2ccc(C(F)(F)F)cn2)C1 (stereo not given)	-7.49%
c1cc(COC[C@]23COC[C@H]2CN(Cc2ccncc2)C3)ccn1	9.04%
CC(C)(C)n1nnnc1CN(Cc1ccccc1)Cc1ccccc1Cl	-5.12%
CN(Cc1nnc(C2CC2)n1C)C1CCN(Cc2ccc(F)cc2)C1 (stereo not given)	-6.24%
CN1CC(=O)N(c2ccccc2)CC12CCN(Cc1nccs1)C2 (stereo not given)	3.9%
Cc1cc(C(F)(F)F)nn1CCCNC(=O)C1CCCO1 (stereo not given)	16.3%
Cc1cc(C2CCCN2C(=O)Nc2cn[nH]c2)on1 (stereo not given)	-4.06%
Cc1ccc(C(=O)NCCCNc2ccc(C(F)(F)F)cn2)cc1	-9.05%

Structure (SMILES)	cytotoxicity at 70.5 h
CCN(C)C1COC2(CCN(C(=O)c3ccc4[nH]ccc4c3)CC2)C1 (stereo not given)	-11%
O=C(NCCn1nc2ccccn2c1=O)c1scnc1Cl	-2.79%
Cn1cnc2c(-c3ccccc3)nc(C3CCNCC3)cc21	13.6%
COCCNC(=O)CNC(=O)c1nc(Cc2c(Cl)cccc2Cl)no1	-8.7%
CCS(=O)(=O)N(C)CCCNCc1c(C)nn(C)c1N(C)C	-2.24%
CN1CCC(N2CCC(c3ccccc3C(=O)O)C2)CC1 (stereo not given)	-0.525%
COc1ccccc1NC(=O)N(CCO)Cc1ccsc1	5.1%
O=C(NCc1ccccc1F)N1CCC(C2OCCO2)CC1	-7.09%
CCS(=O)(=O)CCN(CC1CCCO1)C1CCCC1 (stereo not given)	-2.46%
CCn1ccnc1CN1CCN(C(C)C(=O)NCc2ccco2)CC1 (stereo not given)	16.6%
COc1c(C2CCCN2C(=O)c2cscn2)c(C)nn1C (stereo not given)	18.5%
CCCNC(=O)NC(=O)CN1CCN(Cc2nccn2CC)CC1	-9.22%
COc1ccc(S(=O)(=O)N2CCOC(Cn3ccnc3)C2)cc1 (stereo not given)	-8.46%
O=C(c1ccc(F)cc1)N1CCC2(CCCN2CC2CC2)CC1	-14%
CC(C)N(Cc1ccccn1)C(=O)CCOc1cccc(F)c1	-4.61%
c1cncc(CN2CCc3c(nnn3CC3CC3)C2COCC2CC2)c1 (stereo not given)	-14.9%
CC(Nc1ncnc2c1NC(=O)CN2)c1ccc2c(c1)OCO2 (stereo not given)	-18.5%
CSCCC1c2nc[nH]c2CCN1Cc1[nH]c2ccc(F)cc2c1C (stereo not given)	10.9%
NC(=O)CS(=O)(=O)Cc1ccc(F)cc1	-1.66%
CN(C)c1ncc2c(n1)CCCC2NC(=O)c1ccsc1 (stereo not given)	-3.74%
COc1ccccc1[C@@H]1CN(Cc2c(C)noc2C)C[C@H]1C(=O)O	-8.62%
CCn1ccnc1CN1CCC(N(Cc2ncc(C)o2)C(C)=O)C1 (stereo not given)	4.91%
